A short description of this data set: FBMN analysis of short peptides in small intestine contents and serum after oral DHG. The following applies: for Peptide signal (feature intensity) in the small intestine, 30 min / Peptide signal (feature intensity) in the small intestine, 60 min / Peptide signal (feature intensity) in the small intestine, 120 min / Peptide signal (feature intensity) in the small intestine, 240 min: small intestine contents, C57 mice, FBMN feature intensity, peptides smaller than 690 Da; for Peptide signal (feature intensity) in the small intestine, 30 min: 30 min after oral DHG; for Peptide signal (feature intensity) in the small intestine, 60 min: 60 min after oral DHG; for Peptide signal (feature intensity) in the small intestine, 120 min: 120 min after oral DHG; for Peptide signal (feature intensity) in the small intestine, 240 min: 240 min after oral DHG; for time detected in serum (FBMN): time points 0.5-4 h after oral DHG.

Peptide text beside a SMILES is read from it.

On to `CC[C@H](C)[C@H](NC(=O)[C@@H](N)CC(N)=O)C(=O)O` [Asn-Ile] (H-Asn-Ile-OH), for which the “Peptide signal (feature intensity) in the small intestine, 30 min” value (from here on “Peptide signal (feature intensity) … 30 min”) came out at 1.55E+06; the “Peptide signal (feature intensity) in the small intestine, 60 min” value (from here on “Peptide signal (feature intensity) … 60 min”) came out at 1.54E+06; the “Peptide signal (feature intensity) in the small intestine, 120 min” value (from here on “Peptide signal (feature intensity) … 120 min”) is 4.19E+06; the “Peptide signal (feature intensity) in the small intestine, 240 min” value (shortened to “Peptide signal (feature intensity) … 240 min”) stood at 2.54E+06.

As to `NC(=O)C[C@H](N)C(=O)N[C@@H](Cc1ccccc1)C(=O)O` [Asn-Phe] (H-Asn-Phe-OH), the “Peptide signal (feature intensity) … 30 min” value came out at 2.16E+06; the “Peptide signal (feature intensity) … 60 min” value worked out at 2.86E+06; the “Peptide signal (feature intensity) … 120 min” value is 5.41E+06; the “Peptide signal (feature intensity) … 240 min” value was determined as 4.96E+06.

Take `CC(C)C[C@H](NC(=O)[C@@H](N)CC(=O)O)C(=O)O` [Asp-Leu] (H-Asp-Leu-OH): the “Peptide signal (feature intensity) … 30 min” value was 5.68E+06; the “Peptide signal (feature intensity) … 60 min” value is given as 2.91E+06; the “Peptide signal (feature intensity) … 120 min” value amounted to 7.39E+06; the “Peptide signal (feature intensity) … 240 min” value turned out to be 1.44E+07.

Consider `N[C@@H](CC(=O)O)C(=O)N[C@@H](Cc1ccccc1)C(=O)O` [Asp-Phe] (H-Asp-Phe-OH), for which the “time detected in serum (FBMN)” value is reported as “only detected in the first hour”; the “Peptide signal (feature intensity) … 30 min” value was 3.76E+07; the “Peptide signal (feature intensity) … 60 min” value is reported as 6.08E+07; the “Peptide signal (feature intensity) … 120 min” value is on record as 1.22E+08. Besides, the “Peptide signal (feature intensity) … 240 min” value is listed as 1.29E+08.

`N[C@@H](CC(=O)O)C(=O)N1CCC[C@H]1C(=O)O` [Asp-Pro] (H-Asp-Pro-OH): the “Peptide signal (feature intensity) … 30 min” value came out at 0.00E+00; the “Peptide signal (feature intensity) … 60 min” value stood at 7.32E+06; the “Peptide signal (feature intensity) … 120 min” value was 1.15E+07; the “Peptide signal (feature intensity) … 240 min” value is listed as 2.09E+07.

On to `N[C@@H](CCC(=O)O)C(=O)N[C@@H](Cc1ccccc1)C(=O)O` [Glu-Phe], for which the “time detected in serum (FBMN)” value is ≥ 4 h; the “Peptide signal (feature intensity) … 30 min” value worked out at 0.00E+00; the “Peptide signal (feature intensity) … 60 min” value is 3.96E+06; the “Peptide signal (feature intensity) … 120 min” value is 0.00E+00. Further, the “Peptide signal (feature intensity) … 240 min” value came to 1.66E+07.

Regarding `N[C@@H](CCC(=O)O)C(=O)N[C@@H](Cc1ccc(O)cc1)C(=O)O` [Glu-Tyr] (H-Glu-Tyr-OH), the “Peptide signal (feature intensity) … 30 min” value amounted to 6.78E+05; the “Peptide signal (feature intensity) … 60 min” value turned out to be 4.16E+05; the “Peptide signal (feature intensity) … 120 min” value is 0.00E+00; the “Peptide signal (feature intensity) … 240 min” value came out at 1.73E+06.

Regarding `CC(C)[C@H](NC(=O)[C@@H](N)CCC(=O)O)C(=O)N[C@@H](Cc1ccccc1)C(=O)O` [Glu-Val-Phe] (H-Glu-Val-Phe-OH), the “Peptide signal (feature intensity) … 30 min” value is on record as 2.73E+05; the “Peptide signal (feature intensity) … 60 min” value turned out to be 1.52E+05; the “Peptide signal (feature intensity) … 120 min” value turned out to be 4.18E+05; the “Peptide signal (feature intensity) … 240 min” value is listed as 1.30E+06.

With `CC[C@H](C)[C@H](NC(=O)CN)C(=O)O` [Gly-Ile] (H-Gly-Ile-OH), the “Peptide signal (feature intensity) … 30 min” value is given as 1.17E+07; the “Peptide signal (feature intensity) … 60 min” value is 1.01E+07; the “Peptide signal (feature intensity) … 120 min” value amounted to 0.00E+00; the “Peptide signal (feature intensity) … 240 min” value came to 0.00E+00.

As to `CC(C)C[C@H](NC(=O)CN)C(=O)O` [Gly-Leu], the “Peptide signal (feature intensity) … 30 min” value is 0.00E+00; the “Peptide signal (feature intensity) … 60 min” value was 4.18E+07; the “Peptide signal (feature intensity) … 120 min” value was determined as 0.00E+00; the “Peptide signal (feature intensity) … 240 min” value came to 4.47E+07.

Consider `CSCC[C@H](NC(=O)CN)C(=O)O` [Gly-Met], for which the “Peptide signal (feature intensity) … 30 min” value is on record as 2.08E+06; the “Peptide signal (feature intensity) … 60 min” value stood at 7.49E+05; the “Peptide signal (feature intensity) … 120 min” value is reported as 0.00E+00; the “Peptide signal (feature intensity) … 240 min” value was 0.00E+00.

For `NCC(=O)N[C@@H](Cc1ccc(O)cc1)C(=O)O` [Gly-Tyr] (H-Gly-Tyr-OH), the “Peptide signal (feature intensity) … 30 min” value is listed as 0.00E+00; the “Peptide signal (feature intensity) … 60 min” value amounted to 5.39E+06; the “Peptide signal (feature intensity) … 120 min” value came out at 0.00E+00; the “Peptide signal (feature intensity) … 240 min” value worked out at 2.06E+07.

For the molecule `CC(C)[C@H](NC(=O)CN)C(=O)O` [Gly-Val] (H-Gly-Val-OH), the “Peptide signal (feature intensity) … 30 min” value is 0.00E+00; the “Peptide signal (feature intensity) … 60 min” value was 3.54E+06; the “Peptide signal (feature intensity) … 120 min” value stood at 0.00E+00; the “Peptide signal (feature intensity) … 240 min” value is given as 2.70E+06.

Turning to `Nc1nc2c(ncn2[C@@H]2O[C@H](CO)[C@@H](O)[C@H]2O)c(=O)[nH]1` [Guanosine], the “Peptide signal (feature intensity) … 30 min” value came out at 8.57E+06; the “Peptide signal (feature intensity) … 60 min” value is reported as 2.01E+06; the “Peptide signal (feature intensity) … 120 min” value is listed as 0.00E+00; the “Peptide signal (feature intensity) … 240 min” value was 0.00E+00.

As for `CC[C@H](C)[C@H](NC(=O)[C@@H](N)Cc1cnc[nH]1)C(=O)O` [His-Ile] (H-His-Ile-OH), the “Peptide signal (feature intensity) … 30 min” value is given as 1.87E+07; the “Peptide signal (feature intensity) … 60 min” value was determined as 0.00E+00; the “Peptide signal (feature intensity) … 120 min” value is listed as 2.72E+07; the “Peptide signal (feature intensity) … 240 min” value was 2.33E+07.

`N[C@@H](Cc1cnc[nH]1)C(=O)N1CCC[C@H]1C(=O)O` [His-Pro]: the “Peptide signal (feature intensity) … 30 min” value turned out to be 4.26E+07; the “Peptide signal (feature intensity) … 60 min” value was found to be 5.51E+07; the “Peptide signal (feature intensity) … 120 min” value is 0.00E+00; the “Peptide signal (feature intensity) … 240 min” value is 8.49E+06.

Regarding `N[C@@H](Cc1cnc[nH]1)C(=O)N[C@@H](Cc1c[nH]c2ccccc12)C(=O)O` [His-Trp], the “Peptide signal (feature intensity) … 30 min” value stood at 1.94E+06; the “Peptide signal (feature intensity) … 60 min” value is on record as 0.00E+00; the “Peptide signal (feature intensity) … 120 min” value was 1.97E+06; the “Peptide signal (feature intensity) … 240 min” value turned out to be 5.05E+06.

Regarding `CC[C@H](C)[C@H](N)C(=O)N[C@@H](CC(N)=O)C(=O)O` [Ile-Asn] (H-Ile-Asn-OH), the “Peptide signal (feature intensity) … 30 min” value is on record as 7.93E+06; the “Peptide signal (feature intensity) … 60 min” value is 7.66E+06; the “Peptide signal (feature intensity) … 120 min” value came out at 0.00E+00; the “Peptide signal (feature intensity) … 240 min” value is listed as 0.00E+00.

In the case of `CC[C@H](C)[C@H](N)C(=O)N[C@@H](CCC(=O)O)C(=O)N[C@@H](CCCCN)C(=O)O` [Ile-Glu-Lys] (H-Ile-Glu-Lys-OH), the “Peptide signal (feature intensity) … 30 min” value was determined as 0.00E+00; the “Peptide signal (feature intensity) … 60 min” value is 6.83E+05; the “Peptide signal (feature intensity) … 120 min” value is given as 0.00E+00; the “Peptide signal (feature intensity) … 240 min” value is listed as 2.93E+06.

As to `CC[C@H](C)[C@H](N)C(=O)NCC(=O)N[C@H](C(=O)O)[C@@H](C)CC` [Ile-Gly-Ile] (H-Ile-Gly-Ile-OH), the “Peptide signal (feature intensity) … 30 min” value turned out to be 0.00E+00; the “Peptide signal (feature intensity) … 60 min” value was 2.90E+06; the “Peptide signal (feature intensity) … 120 min” value was found to be 1.40E+06; the “Peptide signal (feature intensity) … 240 min” value is given as 1.45E+06.

For the molecule `CC[C@H](C)[C@H](N)C(=O)N[C@H](C(=O)N[C@@H](CCCCN)C(=O)O)[C@@H](C)CC` [Ile-Ile-Lys] (H-Ile-Ile-Lys-OH), the “Peptide signal (feature intensity) … 30 min” value is 3.33E+05; the “Peptide signal (feature intensity) … 60 min” value is 2.00E+05; the “Peptide signal (feature intensity) … 120 min” value is given as 0.00E+00; the “Peptide signal (feature intensity) … 240 min” value came to 0.00E+00.

On to `CC[C@H](C)[C@H](N)C(=O)N[C@@H](CC(C)C)C(=O)O` [Ile-Leu] (H-Ile-Leu-OH), for which the “Peptide signal (feature intensity) … 30 min” value came out at 3.18E+06; the “Peptide signal (feature intensity) … 60 min” value was determined as 3.36E+06; the “Peptide signal (feature intensity) … 120 min” value was 0.00E+00; the “Peptide signal (feature intensity) … 240 min” value came to 0.00E+00.

Take `CCC(C)C(N)C(=O)NC(CCCCN)C(=O)O` (stereo not drawn) [Ile-Lys] (H-Ile-Lys-OH; configuration not given here): the “Peptide signal (feature intensity) … 30 min” value is 0.00E+00; the “Peptide signal (feature intensity) … 60 min” value worked out at 0.00E+00; the “Peptide signal (feature intensity) … 120 min” value came out at 0.00E+00; the “Peptide signal (feature intensity) … 240 min” value was 0.00E+00.

For `CCC(C)C(N)C(=O)N1CCCC1C(=O)O` (stereo not drawn) [Ile-Pro] (H-Ile-Pro-OH; configuration not given here), the “Peptide signal (feature intensity) … 30 min” value is on record as 1.26E+07; the “Peptide signal (feature intensity) … 60 min” value is given as 6.59E+06; the “Peptide signal (feature intensity) … 120 min” value was determined as 1.48E+07; the “Peptide signal (feature intensity) … 240 min” value was determined as 2.26E+07.

Regarding `CCC(C)C(N)C(=O)NC(C(=O)O)C(C)O` (stereo not drawn) [Ile-Thr] (H-Ile-Thr-OH; configuration not given here), the “Peptide signal (feature intensity) … 30 min” value stood at 6.56E+06; the “Peptide signal (feature intensity) … 60 min” value was 7.13E+06; the “Peptide signal (feature intensity) … 120 min” value came out at 0.00E+00; the “Peptide signal (feature intensity) … 240 min” value turned out to be 0.00E+00.

For the origin of these results see paper PMC12616683, “In Vivo Atlas of Neuroprotective Cyclic Dipeptides Derived from Food Gelatin Using Peptidomics and Feature-Based Molecular Networking” (Journal of Agricultural and Food Chemistry, 2025).
